The values that follow come from PMC10350920, “Development of a 2,4-Diaminothiazole Series for the Treatment of Human African Trypanosomiasis Highlights the Importance of Static–Cidal Screening of Analogues” (Journal of Medicinal Chemistry, 2023).

Read-outs that look alike come from different tables or passages of the source.

The subject of series [1] is BSF T. b. brucei “single marker” S427. Kind of series: Drug sensitivity assay with bloodstream-form T. brucei. The class given is cell-based. The settings on record: Trypanosoma brucei; mean values; number of replicates in parentheses. The method, then:
(§1) Drug sensitivity assays with BSF T. b. brucei “single marker” S427 and human MRC-5 fibroblasts were conducted as previously described.[43]

Series [2] in a line: Mammalian cell counter screen (MRC-5). Type of series: cell-based, human. The settings on record: human, MRC-5 fibroblasts; mean values; number of replicates in parentheses. The method, then:
as §1
Background: Counterscreens check selectivity or assay interference.

Another series deals with human MRC-5 fibroblasts. Kind of series: Mammalian cell counter screen (MRC-5). The class given is cell-based. The settings on record: for SI: selectivity index (EC50 MRC5/EC50 T. brucei). The method, then: as §1
Series [3] in a line: Mouse liver microsomal intrinsic clearance. Type of series: in vitro ADME. In a few lines:
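Compound (0.5 μM) incubated with liver microsomes (0.5 mg/mL, 50 mM potassium phosphate pH 7.4) and excess NADPH; samples quenched at 0–30 min and analysed by UPLC–MS/MS. Rate constant from exponential decay of compound/internal standard ratio; CLint scaled with 52.5 mg protein/g liver.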
(Microsomes from liver hold many membrane-bound enzymes, among them those of drug oxidation.)

The test system of a further series is TbGSK3. More on the design: method as in PMID 23776181. The settings on record: recombinant enzyme, previously established; cited from earlier work.
Series [4] in a line: Kinetic aqueous solubility (laser nephelometry). The settings on record: Milli-Q water with 2.5% DMSO. Type of series: physicochemical. The method, then: The kinetic aqueous solubility of the test compounds was measured using laser nephelometry. Compounds were subject to serial dilution from 10 to 0.5 mM in DMSO. An aliquot was then mixed with Milli-Q water to obtain an aqueous dilution plate with a final concentration range of 13–250 μM, with a final DMSO concentration of 2.5%. Triplicate aliquots were transferred to a flat-bottomed polystyrene plate which was immediately read on the NEPHELOstar (BMG Lab Technologies). The amount of laser scatter caused by insoluble particulates (relative nephelometry units, RNUs) was plotted against compound concentration using a segmental regression fit, with the point of inflection being quoted as the compound’s aqueous solubility (μM).

Series [5] can be described thus: Human microsomal intrinsic clearance. The class given is in vitro ADME. The settings on record: second value of mouse/human cell.
Series [6] is described as follows: Equilibrium dialysis, free fraction in plasma. Type of series: in vitro ADME, mouse. The settings on record: matrix not given. The method, then: In brief, a 96-well equilibrium dialysis apparatus was used to determine the free fraction in plasma and the brain (HT Dialysis LLC, Gales Ferry, CT). Isotonic buffer was prepared using 8.69 g of Na2HPO4, 1.9 g of KH2PO4, and 4.11 g of NaCl dissolved in 1 L of Milli-Q water, and the pH was adjusted to 7.4. Artificial CSF was prepared using 3.652 g of NaCl, 93.2 mg of KCl, 119.96 mg of MgCl2, 92.61 mg of CaCl2, and 268 mg of Na2HPO4 heptahydrate dissolved in 0.5 L of water, and the pH was adjusted to 7.4. Membranes [12–14 (plasma) or 6–9 (brain) kDA cutoff] were conditioned in deionized water for 60 min, followed by conditioning in 80:20 deionized water/ethanol for 20 min, and then rinsed in isotonic buffer (plasma) or […] (brain) before use. Female CD1 mouse plasma was defrosted and centrifuged for 10 min at 3000 rpm (Allegra X12-R, Beckman Coulter, USA). The control mouse brain was homogenized in two volumes of artificial CSF in a Covaris S2 acoustic homogenizer. Plasma or brain homogenate was spiked with the test compound (10 μg mL^–1), and 150 μL aliquots (n = 3 replicate determinations) were loaded into the 96-well equilibrium dialysis plate. Dialysis versus 150 μL of isotonic buffer (plasma) or artificial CSF (brain) was carried out for 5 h in a temperature-controlled incubator at 37 °C (Barworld Scientific Ltd, UK) using an orbital microplate shaker at 125 rpm (Barworld Scientific Ltd, UK). At the end of the incubation period, aliquots of plasma/homogenized brain or buffer were transferred to a clean 96-well plate, and the composition in each well was balanced with control fluid, such that the volume of buffer to the matrix was the same. Sample extraction was performed by the addition of 400 μL of acetonitrile containing an appropriate internal standard. Samples were allowed to mix for 1 min and then centrifuged at 3000 rpm in 96-well blocks for 10 min (Allegra X12-R, Beckman Coulter, USA). All samples were analyzed by means of UPLC/MS/MS on a Quattro Premier XE or Micro TQs mass spectrometer (Waters Corporation, USA). The unbound fraction was determined as the ratio of the peak area in the buffer to that in the matrix.

Another series relates to T. brucei wild-type. Briefly: Drug sensitivity, wild-type parental line. Type of series: cell-based, T. b. brucei. The settings on record: Trypanosoma brucei; weighted mean of ≥3 independent experiments. The method, then: (§2) Drug sensitivity assays were carried out with BSF T. b. brucei “single marker” S427 or BSF T. b. brucei, Lister 427, MiTat 1.2, clone 221a 2T1 cells,[45] cells grown at 37 °C with 5% CO2 in an HMI-9T medium[46] as previously described.[47] 2T1 cells were initially maintained with 1 μg mL^–1 puromycin and 1 μg mL^–1 phleomycin prior to transfection or 2.5 μg mL^–1 hygromycin and 1 μg mL^–1 phleomycin after transfection. Induction of overexpression was achieved by the addition of 1 μg mL^–1 tetracycline to the culture medium.
(§3) Compound-resistant cell lines were generated by subculturing a clone of T. brucei in the continuous presence of 38. Starting at sublethal concentrations, drug concentrations in two independent cultures were increased in a stepwise manner, usually 2-fold. When parasites were able to survive and grow in concentrations of drugs equivalent to more than 10 times the established EC50 value, the resulting cell lines were cloned by limiting dilution in the presence of the compound. Two clones (RES I-II) were selected for further biological study. A standard alkaline lysis protocol was used to isolate genomic DNA from compound-resistant bloodstream T. brucei parasites (∼1 × 10^8). Whole genome sequencing was performed using a DNB-seq next-generation sequencing platform (BGI, Hong Kong). Sequencing reads (150 bp) were aligned to the T. brucei TREU927 genome (v39; tritrypDB) using Bowtie2[48] and Samtools[49] software. […] Samtools and BCFtools[52] (mpileup) were used to call SNP and indels compared with the wild-type starter clone, where the overall quality score (QUAL) was >100. Artemis[50] was used to analyze chromosome and gene copy number variation, as well as visualization of SNPs.

The test system of another series is T. brucei RES I. Kind of series: Drug sensitivity, compound 38-resistant clone RES I. The class given is cell-based, T. b. brucei. The settings on record: for EC50: Trypanosoma brucei, read-out: EC50, RES I; for fold resistance, RES I: relative to the parental wild-type, in brackets. The method, then: as §2, §3
Another series has as its system T. brucei RES II. Briefly: Drug sensitivity, compound 38-resistant clone RES II. Type of series: cell-based, T. b. brucei. The settings on record: for EC50: Trypanosoma brucei, read-out: EC50, RES II; for fold resistance, RES II: relative to the parental wild-type, in brackets. The method, then: as §2, §3
The test system of series [7] is Tb927.8.6290 overexpressing cell lines (WT). Kind of series: Drug sensitivity, line overexpressing Tb927.8.6290 WT. The class given is cell-based, T. b. brucei. The settings on record: for EC50: Trypanosoma brucei. The method, then:
as §2
(§4) The following primers were used to PCR amplify Tb927.8.6290 from genomic DNA isolated from wild-type and 38-resistant trypanosomes 5′-[…]-3′ (PacI site in bold) and 5′-[…]-3′ (BamHI site in bold). The PCR products (1272 bp) were then cloned into the pRPa plasmid.[53] The accuracy of the plasmid constructs was confirmed by in-house Sanger sequencing and then linearized with AscI prior to transfection. The linearized plasmids were introduced into 2T1 T. b. brucei cells following removal of puromycin from the media and selected with 2.5 μg mL^–1 hygromycin and 1 μg mL^–1 phleomycin. Two independent clones were selected for further studies.

Series [8] deals with Tb927.8.6290 overexpressing cell lines (A258P). Kind of series: Drug sensitivity, line overexpressing Tb927.8.6290 A258P. The settings on record: for EC50: Trypanosoma brucei. Type of series: cell-based, T. b. brucei. The method, then: as §2, §4
The test system of series [9] is Tb927.8.6290 overexpressing cell lines (V241F/A258V). Briefly: Drug sensitivity, line overexpressing Tb927.8.6290 V241F/A258V. The class given is cell-based, T. b. brucei. The settings on record: for EC50: Trypanosoma brucei. The method, then:
as §2, §4

Broadly, the IC50 is the concentration at which inhibition is half-maximal. In the case of `CC(C)(C)C(=O)c1sc(NC2CCCCC2)nc1N` [Compound 1, 1-(4-Amino-2-(cyclohexylamino)thiazol-5-yl)-2,2-dimethylpropan-1-one], the EC50 in series [1] worked out at 470 nM. In addition, the EC50 in series [2] was above 50000 nM. Further, in the series with human MRC-5 fibroblasts, the “selectivity over MRC-5 cell line” value is given as around 200 fold and the SI was above 100. For the same molecule, the “CLint (mouse)” value in series [3] was found to be 2.5 mL·min/g. Also, in the series with TbGSK3, the half-maximal inhibitory concentration (IC50) was 12000 nM.

A word on the solubility: it is the dissolved amount per volume that the medium holds. Low readings indicate little dissolved substance, high ones much dissolved substance. On to `CC(OCC(=O)c1sc(Nc2ccc(C(F)(F)F)nc2)nc1N)C(F)(F)F` (stereo not drawn) [Compound 56, 1-(4-Amino-2-((6-(trifluoromethyl)pyridine-3-yl)amino)thiazol-5-yl)-2-((1,1,1-trifluoropropan-2-yl)oxy)ethanone], for which the results for the EC50 in [1] and in series [2] were 520 nM and above 50000 nM, respectively. In the series on human MRC-5 fibroblasts, this molecule had an SI of 96. Moreover, in [4], the solubility was above 100 µg/mL.

Regarding `Nc1nc(NC2CCCCC2)sc1C(=O)c1ccc(OC(F)F)cc1` [Compound 26, (4-Amino-2-(cyclohexylamino)thiazol-5-yl)(4-(difluoromethoxy)phenyl)methanone], the EC50 was determined as 60 nM in series [1] and 22000 nM in [2]. Also, in series [3], the “CLint (mouse)” value came to 2.9 mL·min/g. In addition, the “CLint (human)” value in [5] was found to be 0.8 mL·min/g. Besides, the “Fu (free fraction)” value in [6] is reported as “low”.

Turning to `O=C1Nc2ccc3ncsc3c2/C1=C/Nc1ccc(S(=O)(=O)Nc2ccccn2)cc1` [GW8510], in the series on T. brucei wild-type, the EC50 is 120 ± 8 nM. In addition, in the series on T. brucei RES I, the EC50 worked out at 65 ± 4 nM and the “fold resistance, RES I” value is given as 1. Also, in the series with T. brucei RES II, the EC50 was 110 ± 4 nM and the “fold resistance, RES II” value is on record as 1.

For the molecule `CC(OCC(=O)c1sc(Nc2ccn(C)n2)nc1N)C(F)(F)F` (stereo not drawn) [Compound 55, 1-(4-Amino-2-((1-methyl-1H-pyrazol-3-yl)amino)thiazol-5-yl)-2-((1,1,1-trifluoropropan-2-yl)oxy)ethan-1-one], the values for the EC50 in series [1] and in series [2] were 190 nM and 9400 nM, respectively. The molecule further came in with an SI with human MRC-5 fibroblasts of 50. Also, the “CLint (mouse)” value in [3] was 10.8 mL·min/g. This molecule also came in with a solubility in series [4] above 100 µg/mL.

In the case of `Nc1nc(Nc2ccccc2)sc1C(=O)c1c(F)cccc1F` [Compound 69, reference compound], the EC50 in the series on T. brucei wild-type came to 150 ± 3 nM; in the series with T. brucei RES I, 360 ± 16 nM; with T. brucei RES II it was 390 ± 28 nM; in series [7] (read-out: EC50, WT +TET), 410 ± 19 nM; in series [7] (read-out: EC50, WT –TET) it was 170 ± 4 nM; in series [8] (read-out: EC50, A258P +TET), 1400 ± 35 nM. The EC50 in series [8] (read-out: EC50, A258P –TET) came to 200 ± 9 nM; in series [9] (read-out: EC50, V241F/A258V +TET), 1200 ± 51 nM; in [9] (read-out: EC50, V241F/A258V –TET), 180 ± 11 nM. Further, the “fold resistance, RES I” value in the series with T. brucei RES I came to 2. Besides, the “fold resistance, RES II” value in the series on T. brucei RES II turned out to be 3. For the same molecule, in [7] (−TET vs +TET EC50, in brackets), the “fold shift, WT” value came out at 2. Moreover, the “fold shift, A258P” value in series [8] (−TET vs +TET EC50, in brackets) turned out to be 7. For the same molecule, the “fold shift, V241F/A258V” value in [9] (−TET vs +TET EC50, in brackets) is 6.
